Target: T1, Human complement C1s enzyme (Homo sapiens, UniProt P09871)
T1 construct: purified from human serum, Complement Technology, Inc; purchased Complement Technology, Inc; host or cells: human serum (plasma-derived native protein)
T1 sequence (P09871 438-688 limits assumed): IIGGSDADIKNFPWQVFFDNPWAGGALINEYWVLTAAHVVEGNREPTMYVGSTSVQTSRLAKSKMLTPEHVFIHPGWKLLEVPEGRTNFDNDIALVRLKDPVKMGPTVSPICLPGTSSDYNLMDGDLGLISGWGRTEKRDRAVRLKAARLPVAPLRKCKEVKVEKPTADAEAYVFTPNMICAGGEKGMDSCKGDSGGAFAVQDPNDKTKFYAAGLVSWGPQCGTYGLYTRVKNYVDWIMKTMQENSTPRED
T1 sequence (P09871 16-437 partner limits assumed): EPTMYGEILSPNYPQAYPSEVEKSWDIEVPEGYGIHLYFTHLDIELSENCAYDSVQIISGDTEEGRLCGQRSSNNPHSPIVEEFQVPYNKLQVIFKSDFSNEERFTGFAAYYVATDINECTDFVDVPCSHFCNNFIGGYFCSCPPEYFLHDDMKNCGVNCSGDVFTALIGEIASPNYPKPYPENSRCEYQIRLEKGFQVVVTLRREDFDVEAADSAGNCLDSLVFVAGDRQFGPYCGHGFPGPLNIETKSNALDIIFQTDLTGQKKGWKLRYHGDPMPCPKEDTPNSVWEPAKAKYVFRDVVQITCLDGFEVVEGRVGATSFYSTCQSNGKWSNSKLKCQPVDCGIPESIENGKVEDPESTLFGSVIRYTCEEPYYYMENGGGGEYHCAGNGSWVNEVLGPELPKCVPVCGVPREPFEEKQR
Assay: Human C1s enzyme assay
Format: biochemical
Conditions: human complement C1s enzyme 1.16 nM, substrate Z-L-Lys-SBzl, A405; read-out: IC50 (Stars)
Procedure, shortened: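 Serum-purified human C1s (1.16 nM final) preincubated 5 min at room temperature with compound in 50 mM Tris, 1 M NaCl, pH 7.5. Z-L-Lys-SBzl and DTNB added at 100 μM each; A405 recorded every 30 s. IC50 from nonlinear regression of reaction rates versus compound concentration.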

| Compound | IC50 [nM] |
| --- | --- |
| O=C(Cn1c(-c2ccccc2)ncc(NC(=O)CNC(=O)c2ccc(Oc3ccccc3)cc2)c1=O)NCc1cc2cnccc2[nH]1 [Compound 90, N-(2-((1-(2-(((1H-pyrrolo[3,2-c]pyridin-2-yl)methyl)amino)-2-oxoethyl)-6-oxo-2-phenyl-1,6-dihydropyrimidin-5-yl)-amino)-2-oxoethyl)-4-phenoxy-benzamide] | < 100 |
| C[C@@H](Nc1cnc(N2CCCCC2)n(CC(=O)NCc2cc3cnccc3[nH]2)c1=O)c1ccc(-c2ccccc2F)cc1 [Compound 416, (R)-N-((1H-pyrrolo[3,2-c]pyridin-2-yl)methyl)-2-(5-((1-(2′-fluoro-[1,1′-biphenyl]-4-yl)ethyl)amino)-6-oxo-2-(piperidin-1-yl)pyrimidin-1(6H)-yl)acetamide] | < 100 |
| O=C(COc1cc(C(=O)NCc2ccc3oc4ccccc4c3c2)nc(-c2ccccc2)n1)NCc1cc2cnccc2[nH]1 [Compound 268, 6-(2-(((1H-pyrrolo[3,2-c]pyridine-2-yl)methyl)amino)-2-oxoethoxy)-N-(dibenzo[b,d]furan-2-ylmethyl)-2-phenylpyrimidine-4-carboxamide] | > 1000 |
| C[C@@H](Nc1cnc(-c2cncs2)n(CC(=O)NCc2cc3cnccc3[nH]2)c1=O)c1ccc2oc3ccccc3c2c1 [Compound 358, (R)-N-((1H-pyrrolo[3,2-c]pyridin-2-yl)methyl)-2-(5-((1-(dibenzo[b,d]furan-2-yl)ethyl)-amino)-6-oxo-2-(thiazol-5-yl)-pyrimidin-1(6H)-yl)acetamide] | < 100 |
| CC(=O)N1CCN(c2ncc(N[C@H](C)c3ccc4oc5ccccc5c4c3)c(=O)n2CC(=O)NCc2cc3cnccc3[nH]2)CC1 [Compound 466, (R)-N-((1H-pyrrolo[3,2-c]pyridin-2-yl)methyl)-2-(2-(4-acetylpiperazin-1-yl)-5-((1-(dibenzo[b,d]furan-2-yl)ethyl)-amino)-6-oxopyrimidin-1(6H)-yl)acetamide] | < 100 |
| O=C(Cn1c(-c2ccc(S(F)(F)(F)(F)F)cc2)ncc(NCc2ccc(-c3ccccc3)cc2)c1=O)NCc1cc2cnccc2[nH]1 [Compound 298, N-((1H-pyrrolo[3,2-c]pyridin-2-yl)methyl)-2-(5-(([1,1′-biphenyl]-4-ylmethyl)amino)-6-oxo-2-(4-(pentafluoro-lambda6-sulfaneyl)phenyl)pyr-imidin-1(6H)-yl)acetamide] | < 100 |
| O=C(NCCn1c(-c2ccccc2)ncc(NCc2ccc3oc4ccccc4c3c2)c1=O)c1cc2cnccc2[nH]1 [Compound 267, N-(2-(5-((dibenzo[b,d]furan-2-ylmethyl)amino)-6-oxo-2-phenylpyrimidin-1(6H)-yl)-ethyl)-1H-pyrrolo[3,2-c]pyr-idine-2-carboxamide] | > 1000 |
| Cc1nc(-c2ccccc2)n(CC(=O)NCc2cc3cnccc3[nH]2)c(=O)c1NCc1ccc2oc3ccccc3c2c1 [Compound 337, N-((1H-pyrrolo[3,2-c]pyridin-2-yl)methyl)-2-(5-((dibenzo [b,d]furan-2-ylmethyl)amino)-4-methyl-6-oxo-2-phenylpyr-imidin-1(6H)-yl)acetamide] | < 100 |
| O=C(Cn1c(-c2ccccc2)ncc(NC(=O)C2CCC(c3ccccc3)CC2)c1=O)NCc1cc2cnccc2[nH]1 (stereo not shown) [Compound 254, N-(1-(2-(((1H-pyrrolo[3,2-c]pyridin-2-yl)methyl)amino)-2-oxoethyl)-6-oxo-2-phenyl-1,6-dihydropyrimidin-5-yl)-4-phen-ylcyclohexane-1-carboxamide] | < 100 |
| O=C(Cn1c(-c2ccccc2)ncc(-c2ccccc2)c1=O)NCc1cc2cnccc2[nH]1 [Compound 25, N-((1H-pyrrolo[3,2-c]pyridin-2-yl)methyl)-2-(6-oxo-2,5-diphenylpyrimidin-1(6H)-yl)acetamide] | > 1000 |
| O=C(Cn1c(-c2ccccc2)ncc(N2CCn3c(nnc3C(F)(F)F)C2)c1=O)NCc1cc2cnccc2[nH]1 [Compound 44, N-((1H-pyrrolo[3,2-c]pyridin-2-yl)methyl)-2-(6-oxo-2-phen-yl-5-(3-(trifluoromethyl)-5,6-dihydro-[1,2,4]triazolo[4,3-a]pyrazin-7(8H)-yl)pyrimidin-1(6H)-yl)acetamide] | 100 to 1000 |
| O=C(Cn1c(-c2ccccc2)cnc(NC(=O)c2ccc(-c3ccccc3)cc2)c1=O)NCc1cc2cnccc2[nH]1 [Compound 100, N-(4-(2-(((1H-pyrrolo[3,2-c]pyridin-2-yl)methyl)amino)-2-oxoethyl)-3-oxo-5-phenyl-3,4-dihydropyrazin-2-yl)-[1,1′-biphenyl]-4-carboxamide] | < 100 |
| C[C@@H](Nc1cnc(N2CCOCC2)n(CC(=O)NCc2cc3cnccc3[nH]2)c1=O)c1coc(-c2ccccc2)n1 [Compound 461, (R)—N-((1H-Pyrrolo[3,2-c]pyridine-2-yl)methyl)-2-(2-morpholino-6-oxo-5-((1-(2-phenyloxazol-4-yl)ethyl)amino)pyrimidin-1(6H)-yl)acetamide] | < 100 |

The next lines start with the values.

| IC50 [nM] | Compound |
| --- | --- |
| < 100 | C[C@@H](Nc1cnc(-c2ccc(OCCCCCCCN)cc2)n(CC(=O)NCc2cc3cnccc3[nH]2)c1=O)c1ccc2oc3ccccc3c2c1 [Compound 451, (R)—N-((1H-Pyrrolo[3,2-c]pyridine-2-yl)methyl)-2-(2-(4-((7-aminoheptyl)oxy)phenyl)-5-((1-(dibenzo[b,d]furan-2-yl)ethyl)amino)-6-oxopyrimidin-1(6H)-yl)acetamide] |
| < 100 | O=C(Cn1c(-c2ccccc2)ncc(NC(=O)c2ncc(-c3ccccc3)o2)c1=O)NCc1cc2cnccc2[nH]1 [Compound 171, N-(1-(2-(((1H-pyrrolo[3,2-c]pyridine-2-yl)methyl)amino)-2-oxoethyl)-6-oxo-2-phenyl-1,6-dihydropyrimidin-5-yl)-5-phenyloxazole-2-carboxamide] |
| > 1000 | C[C@@H](Nc1cnc(N2CCC(F)(F)CC2)n(CC(=O)NCc2cc3cnccc3[nH]2)c1=O)c1ccc2oc3ccccc3c2c1 [Compound 379, (R)-N-((1H-pyrrolo[3,2-c]pyridin-2-yl)methyl)-2-(5-((1-(dibenzo[b,d]furan-2-yl)ethyl)-amino)-2-(4,4-difluoropiperi-din-1-yl)-6-oxopyrimidin-1(6H)-yl)acetamide] |
| < 100 | O=C(Cn1c(-c2ccccc2)ncc(NC(=O)c2cnc(-c3ccccc3)[nH]2)c1=O)NCc1cc2cnccc2[nH]1 [Compound 168, N-(1-(2-(((1H-pyrrolo[3,2-c]pyridin-2-yl)methyl)amino)-2-oxoethyl)-6-oxo-2-phenyl-1,6-dihydropyrimidin-5-yl)-2-phenyl-1H-imidazole-5-carbox-amide] |
| < 100 | C[C@@H](Nc1cnc(-c2ccccc2F)n(CC(=O)NCc2cc3cnccc3[nH]2)c1=O)c1coc(-c2ccccc2)n1 [Compound 321, (R)—N-((1H-pyrrolo[3,2-c]pyridine-2-yl)methyl)-2-(2-(2-fluorophenyl)-6-oxo-5-((1-(2-phenyloxazol-4-yl)ethyl)amino)pyrimidin-1(6H)-yl)acetamide] |
| < 100 | Cc1cc(F)cc(C)c1Nc1cnc(-c2ccccc2)n(CC(=O)NCc2cc3cnccc3[nH]2)c1=O [Compound 244, N-((1H-pyrrolo[3,2-c]pyridin-2-yl)methyl)-2-(5-((4-fluoro-2,6-dimethylphenyl)amino)-6-oxo-2-phenylpyrimidin-1(6H)-yl)acetamide] |

— patent US20260184707A1, “PHARMACEUTICAL COMPOUNDS FOR THE TREATMENT OF COMPLEMENT MEDIATED DISORDERS” (ALEXION PHARMACEUTICALS, INC., priority 2022, published 2026)
